Results as given in patent US20220146526A1, “METHOD FOR EVALUATING SAMPLE, ANALYSIS METHOD, METHOD FOR DETECTING DEGRADED SAMPLE, MARKER FOR DETECTING DEGRADED BLOOD PLASMA SAMPLE, AND MARKER FOR DETECTING DEGRADED SERUM SAMPLE” (SHIMADZU CORPORATION, priority 2019, published 2022).

Tests used:
Assay type in all cases: physicochemical, human
[1] = GC/MS of blood plasma sample: time from blood collection to centrifugation (Table A); conditions: for Rate of increase or decrease: detection intensity relative to 1 at 15 minutes; for Rate of increase or decrease / Increase or decrease: blood collection to centrifugation; for Increase or decrease: detection intensity
Experimental: At room temperature, 5 mL of blood from a healthy subject was taken into a blood-collecting vessel containing EDTA, and the blood-collecting vessel was inverted for mixing, then cooled, and allowed to stand at 4° C. Here, in order to investigate how the detection intensity of molecules contained in the sample was affected in a case where the time to cooling was set to 5 minutes or more as compared to that in a case where the time to cooling was set to 1 minute or less, preparations were performed under both the former condition and the latter condition. After standing, the blood sample was subjected to centrifugation under a condition of 4° C., 3000 rpm, and 15 minutes. […] After centrifugation, the blood-collecting vessel was left to stand at room temperature for 30 minutes, and the blood plasma was isolated during this 30 minutes. The obtained blood plasma sample was frozen and stored. Here, in order to investigate how the detection intensity of molecules contained in the sample was affected in cases where freezing and thawing was performed 4 times, 6 times, and 10 times after freezing as compared to that in a case where freezing and thawing was performed 2 times after freezing, freezing and thawing was performed under the respective conditions of 2, 4, 6, and 10 times.
(§1) Frozen blood plasma samples and serum samples were subjected to GC/MS or LC/MS. In GC/MS, the blood plasma samples and serum samples were subjected to methoxymation and trimethylsilylation and then introduced to GC-MS.
(§2) GC/MS was conducted using GCMS·TQ8040 (Shimadzu Corporation) that was a GC·MS equipped with AOC·20i (Shimadzu Corporation) as an autosampler.
(§3) Column: BPX5 (inner diameter of 0.25 mm, length of 30 m, and film thickness of 0.25 μm) (SGE)
(§4) Column temperature: maintained at 60° C. for 2 minutes, then raised at 15° C./min, and maintained at 330° C. for 3 minutes.
(§5) Inlet temperature: 250° C.
(§6) Carrier gas control mode: constant linear velocity of 39.0 cm/sec
(§7) Sample introduction method: split (split ratio of 30:1) Injection volume: 1 μL
(§8) Ionization method: electron ionization
(§9) Ionization current: 60 μA
(§10) Interface temperature: 280° C.
(§11) Ion source temperature: 200° C.
(§12) Mode: multiple reaction monitoring (MRM)
The rate of increase or decrease in Table A is the value of detection intensity relative to 1 that is the detection intensity in a case where the time from blood collection to centrifugation is set to 15 minutes.

[2] = GC/MS of serum sample: number of times of freezing and thawing (Table I); parameters: key to Rate of increase or decrease / Rate of increase or decrease (first value, increase): detection intensity relative to 2 freeze-thaw cycles = 1; conditions: for Rate of increase or decrease: detection intensity relative to 1 at 2 times; for Number of times when compound is affected: detection intensity changed by 30% or more vs 2 times of freezing and thawing
Experimental: (§13) After standing, the blood sample was subjected to centrifugation under a condition of room temperature, 3500 rpm, and 5 minutes. […] After centrifugation, the blood-collecting vessel was left to stand at room temperature, and the serum was isolated during this time. Here, in order to investigate how the detection intensity of molecules contained in the sample was affected in cases where the time during which the blood-collecting vessel was left at room temperature was set to 1 hour and 6 hours as compared to that in a case where the time was set to 30 minutes, preparations were performed under the respective conditions of 30 minutes, 1 hour, and 6 hours. The obtained serum sample was frozen and stored. Here, in order to investigate how the detection intensity of molecules contained in the sample was affected in cases where freezing and thawing was performed 4 times, 6 times, and 10 times after freezing as compared to that in a case where freezing and thawing was performed 2 times after freezing, freezing and thawing was performed under the respective conditions of 2, 4, 6, and 10 times.
as §1, §2, §3, §4, §5, §6, §7, §8, §9, §10, §11, §12
The rate of increase or decrease in Table I is the value of detection intensity relative to 1 that is the detection intensity in a case where the number of times of freezing and thawing is set to 2 times.

[3] = GC/MS of serum sample: time from blood collection to centrifugation (Table G); conditions: blood collection to centrifugation; for Rate of increase or decrease: detection intensity relative to 1 at 15 minutes, after 4 hours; for Increase or decrease: detection intensity, after 4 hours vs 15 minutes
Experimental: as §13, §1, §2, §3, §4, §5, §6, §7, §8, §9, §10, §11, §12
The rate of increase or decrease in Table G is the value of detection intensity relative to 1 that is the detection intensity in a case where the time from blood collection to centrifugation is set to 15 minutes.

[4] = GC/MS of serum sample: time from centrifugation to isolation (Table H); parameters: key to Rate of increase or decrease / Rate of increase or decrease (first value, increase): detection intensity relative to 1 at 30 min centrifugation-to-isolation; conditions: for Rate of increase or decrease: detection intensity relative to 1 at 30 minutes; for Increase or decrease: detection intensity
Experimental: as §13, §1, §2, §3, §4, §5, §6, §7, §8, §9, §10, §11, §12
The rate of increase or decrease in Table H is the value of detection intensity relative to 1 that is the detection intensity in a case where the time from centrifugation to isolation is set to 30 minutes.

[5] = 10 times of freezing and thawing
[6] = serum sample, GC/MS, detection intensity vs 2 times of freezing and thawing
[7] = detection intensity, serum, GC/MS, freezing and thawing 10 times vs 2 times

SMILES	Rate of increase or decrease ([1]; after 12 hours)	Increase or decrease ([1]; after 12 hours vs 15 minutes)	Rate of increase or decrease [2, 5]	Number of times when compound is affected ([2]; serum sample, GC/MS)	Increase or decrease [2, 6]	Rate of increase or decrease [3]	Increase or decrease [3]	also measured
CC(C)CCC[C@@H](C)[C@H]1CC[C@H]2[C@@H]3CC=C4C[C@@H](O)CC[C@]4(C)[C@H]3CC[C@]12C [Cholesterol]	1.38	Increase	–	–	–	–	–	–
O=C(CO)[C@H](O)[C@@H](O)[C@H](O)CO [Sorbose]	–	–	0.68	10 times	Decrease	1.53	Increase	Increase or decrease ([1]; after 4 hours vs 15 minutes): Different from individual; Rate of increase or decrease (second value, decrease) ([1]; different from individual to individual, individuals with decrease, relative to 1 at 15 minutes, collection to centrifugation, after 4 hours): 0.67; Rate of increase or decrease (first value, increase) ([1]; different from individual to individual, individuals with increase, relative to 1 at 15 minutes, collection to centrifugation, after 4 hours): 2.10
CCCCC/C=C\C/C=C\C/C=C\C/C=C\CCCC(=O)O [Arachidonic acid]	–	–	–	–	–	–	–	Rate of increase or decrease ([2]; serum, GC/MS, freezing and thawing 10 times): 1.52; Increase or decrease [2, 7]: Increase; Rate of increase or decrease ([1]; after 4 hours): 1.56; Increase or decrease ([1]; after 4 hours vs 15 minutes): Increase
O=C(O)CCc1c[nH]c2ccccc12 [3-Indolepropionic acid]	–	–	–	–	–	1.93	Increase	Increase or decrease [2, 7]: Different from individual; Rate of increase or decrease (second value, decrease) ([2]; different from individual to individual, individuals with decrease, relative to 1 at 2 times, serum, GC/MS, freezing and thawing 10 times): 0.67; Rate of increase or decrease (first value, increase) ([2]; different from individual to individual, individuals with increase, relative to 1 at 2 times, serum, GC/MS, freezing and thawing 10 times): 2.21; Rate of increase or decrease ([4]; after 6 hours): 1.54; Increase or decrease ([4]; after 6 hours vs 30 minutes): Increase
O=C(O)c1ccccc1 [Benzoic acid]	–	–	3.86	10 times	Increase	1.30	Decrease	Rate of increase or decrease ([4]; after 1 hour): 0.69; Increase or decrease ([4]; after 1 hour vs 30 minutes): Decrease
CCCCC/C=C\C/C=C\CCCCCCCC(=O)O [Linoleic acid]	1.34	Increase	–	–	–	–	–	–

More lines, main results first:

Rate of increase or decrease ([1]; after 12 hours)	Increase or decrease ([1]; after 12 hours vs 15 minutes)	SMILES	Rate of increase or decrease [2, 5]	Number of times when compound is affected ([2]; serum sample, GC/MS)	Increase or decrease [2, 6]	Rate of increase or decrease [3]	Increase or decrease [3]	also measured
4.05	Increase	CCCCCCCCCCCCCCCC(=O)O [Palmitic acid]	–	–	–	–	–	–
2.13	Increase	CCCCCCCCCCCCCCCCCC(=O)O [Stearic acid]	1.33	10 times	Increase	–	–	–
4.05	Increase	CCCCCCCC/C=C\CCCCCCCC(=O)O [Oleic acid]	–	–	–	–	–	–
